“Also recorded” adds a separate entry of the source.
Assays:
[1] = target: hNav1.6 (Homo sapiens, UniProt Q9UQD0); format: cell-based
[2] = tested on: human iPS-derived cardiomyocytes; assay: Automated patch-clamp of Na+ current in human iPS-derived cardiomyocytes; format: cell-based
Protocol: The control hiPSC cell line (ITXi002-A; IRX5-Wt[16]; RRID:CVCL_B5QD) was generated from primary dermal fibroblasts and previously characterized.[17–19] hiPSCs were maintained at 37°C, 5% CO2, 21% O2 in StemMacs PSC-Brew XF human medium (Miltenyi Biotec, #130-127-865) on culture plates coated with 0.05 mg/mL Matrigel hESC-Qualified Matrix (Corning, #354277) in DMEM F12 (Gibco, #11320033). At 75% confluency, the cells were passaged using the Gentle Cell Dissociation Reagent (StemCell Technologies, #07174).
We generated right ventricular-like cardioids on 96-well low-attachment plates using the Schmidt et al. (2023) protocol.[20] At D15.5, cardioids were pooled, dissociated, and replated as a monolayer in MW12 plates (Falcon, #353047) coated with Matrigel (Corning, #354277) for automated patch-clamp, and as single cells in 35-mm Petri dishes (NUNC #055055) coated with Matrigel for manual patch-clamp. Immediately before patch-clamp recording, cardiomyocytes were single-cell dissociated using Accutase (Sigma, #A6964).
For human iPSC-derived cardiomyocytes recordings, cells were resuspended at 300 000 cells/mL in a solution composed of 50% culture media and 50% extracellular buffer containing (in mM) 140 NaCl, 4 KCl, 2 CaCl2, 1 MgCl2, 5 glucose, and 10 HEPES (pH 7.4, osmolarity 298 mOsm) supplemented with 5 µM nifedipine. Single-hole, low-resistance chips (3–5 MΩ) were used. The intracellular solution contained (in mM) 10 KCl, 110 KF, 10 NaCl, 1 MgCl2, 1 CaCl2, 10 Ethylene Glycol Tetra-acetic Acid (EGTA), and 10 HEPES (pH 7.2, osmolarity 280 mOsm). Currents were recorded and analysed as previously described for stable cell lines.

[3] = tested on: adult rat ventricular myocytes; format: cell-based
[4] = tested on: adult rat ventricular cardiomyocytes; assay: Calcium imaging (SCR events) in isolated rat cardiomyocytes; format: cell-based
Protocol: Eleven-week-old Wistar Han rats were euthanized by intraperitoneal (i.p.) injection of a lethal dose of pentobarbital (140 mg/kg, Euthasol®). Subsequently, the hearts were quickly excised and rinsed in cold calcium-free Tyrode solution with the following composition (in mM): 118 NaCl, 4.17 KCl, 1.2 MgSO4, 1.2 KH2PO4, 21 NaHCO3, 11 glucose, and 5 taurine, at pH 7.4. The aorta was promptly cannulated, and the hearts were perfused in a retrograde fashion with warm (37–38°C) Tyrode containing 1.25 mM CaCl2 to flush the coronary arteries of blood and then with a Tyrode solution supplemented with 1 mg/mL collagenase type 2 (Worthington Biochemical Corp, Lakewood, NJ) and 0.2 U.mL^−1 protease type XIV (Sigma, Poole, UK) during 15–20 min. Once enzymatic digestion is completed, ventricles were shredded into small pieces with surgical scissors in 0.5 mM Ca^2+ Tyrode solution, filtered through a 200-µm mesh, and then resuspended in 1 mM Ca^2+ Tyrode solution for 1 h at RT. Isolated cardiomyocytes were incubated in the dark with Fura-2-AM calcium probe (2 µM in 20% v/v DMSO; Life Technologies) for 15 min. Cardiomyocytes were then loaded onto the IonOptix system (IonOptix Corporation, U.S.A.) and perfused with warm (37°C) Tyrode solution. Cardiomyocytes were stimulated at 0.5 Hz using a MyoPacer field stimulator (20 V, 7 ms) to achieve steady state. Fura-2 fluorescence (F) at 510 nm was used to measure cytoplasmic Ca^2+ concentration variation by exciting with UV light at 340 and 380 nm. Cells were paced for 1 to 2 min, ensuring stabilization of the signals, and the effects of the peptides were measured at the end of a 5 min application time. 30-s-long periods were used as the unit duration (representing 15 Ca^2+ transients) during control and after the perfusion of the compound to count the number of arrhythmogenic transients.

[5] = tested on: isolated rat heart; assay: Ex vivo cardiac electrophysiological recordings (Langendorff, MEA)
Protocol: Eleven-week-old Wistar-Han rats were first heparinized (heparin sodium, 0.5 U/g i.p.) and then euthanized by i.p. injection of 140 mg/kg pentobarbital (Euthasol®). Hearts were quickly excised and immersed in a cold modified Krebs-Henseleit solution (in mM): 116 NaCl, 5 KCl, 1.1 MgSO4, 7 H2O, 0.35 NaH2PO4, 27 NaHCO3, 10 glucose, and pH 7.4. The aorta was cannulated, and the hearts were perfused on a Langendorff system with warm (36.5–37.5°C) and oxygenated (95% O2/5% CO2) Krebs-Henseleit solution supplemented with 1.8 mM CaCl2, 1 mM lactate, and 0.2 mM pyruvate (control solution) at a constant flow rate of 12 mL/min. Once connected to the Langendorff perfusion system, hearts were perfused with control solution for 10 min to stabilize their activities. Electrical activity of the upper part of the right ventricle was assessed using a 64-electrode array (0.2-mm electrode diameter; 0.36-mm interelectrode distance) connected to an EMS64-USB-1002 amplifier. Single-lead ECG was acquired to monitor global cardiac electrical activity. Data were sampled at 10 kHz per channel and acquired by EMapRecord5 (Mappinglab, Oxford, UK). Data were obtained at baseline (2 min before compound perfusion) and during AaH-II* perfusion for 10 min at various concentrations. Data were analysed using EMapScope5 (Mappinglab, Oxford, UK). Activation times were determined as the point of maximal negative slope. All activation times were related to the timing of the first detected waveform and then used to draw activation maps. An average of three complexes was used for activation time and conduction velocity analyses, while interbeat interval was measured as the average of 10 consecutive intervals. The index of inhomogeneity was calculated as previously described.[23] Arrhythmias were quantified over a period of 2 min in control and after peptide perfusion.

[6] = tested on: Wistar-Han rats; format: in vivo, rat; details: rat, in vivo, iv
[7] = rat, in vivo, iv

Chain of hNav1.6 (Q9UQD0 other isoform, or with tags, fused parts or gaps): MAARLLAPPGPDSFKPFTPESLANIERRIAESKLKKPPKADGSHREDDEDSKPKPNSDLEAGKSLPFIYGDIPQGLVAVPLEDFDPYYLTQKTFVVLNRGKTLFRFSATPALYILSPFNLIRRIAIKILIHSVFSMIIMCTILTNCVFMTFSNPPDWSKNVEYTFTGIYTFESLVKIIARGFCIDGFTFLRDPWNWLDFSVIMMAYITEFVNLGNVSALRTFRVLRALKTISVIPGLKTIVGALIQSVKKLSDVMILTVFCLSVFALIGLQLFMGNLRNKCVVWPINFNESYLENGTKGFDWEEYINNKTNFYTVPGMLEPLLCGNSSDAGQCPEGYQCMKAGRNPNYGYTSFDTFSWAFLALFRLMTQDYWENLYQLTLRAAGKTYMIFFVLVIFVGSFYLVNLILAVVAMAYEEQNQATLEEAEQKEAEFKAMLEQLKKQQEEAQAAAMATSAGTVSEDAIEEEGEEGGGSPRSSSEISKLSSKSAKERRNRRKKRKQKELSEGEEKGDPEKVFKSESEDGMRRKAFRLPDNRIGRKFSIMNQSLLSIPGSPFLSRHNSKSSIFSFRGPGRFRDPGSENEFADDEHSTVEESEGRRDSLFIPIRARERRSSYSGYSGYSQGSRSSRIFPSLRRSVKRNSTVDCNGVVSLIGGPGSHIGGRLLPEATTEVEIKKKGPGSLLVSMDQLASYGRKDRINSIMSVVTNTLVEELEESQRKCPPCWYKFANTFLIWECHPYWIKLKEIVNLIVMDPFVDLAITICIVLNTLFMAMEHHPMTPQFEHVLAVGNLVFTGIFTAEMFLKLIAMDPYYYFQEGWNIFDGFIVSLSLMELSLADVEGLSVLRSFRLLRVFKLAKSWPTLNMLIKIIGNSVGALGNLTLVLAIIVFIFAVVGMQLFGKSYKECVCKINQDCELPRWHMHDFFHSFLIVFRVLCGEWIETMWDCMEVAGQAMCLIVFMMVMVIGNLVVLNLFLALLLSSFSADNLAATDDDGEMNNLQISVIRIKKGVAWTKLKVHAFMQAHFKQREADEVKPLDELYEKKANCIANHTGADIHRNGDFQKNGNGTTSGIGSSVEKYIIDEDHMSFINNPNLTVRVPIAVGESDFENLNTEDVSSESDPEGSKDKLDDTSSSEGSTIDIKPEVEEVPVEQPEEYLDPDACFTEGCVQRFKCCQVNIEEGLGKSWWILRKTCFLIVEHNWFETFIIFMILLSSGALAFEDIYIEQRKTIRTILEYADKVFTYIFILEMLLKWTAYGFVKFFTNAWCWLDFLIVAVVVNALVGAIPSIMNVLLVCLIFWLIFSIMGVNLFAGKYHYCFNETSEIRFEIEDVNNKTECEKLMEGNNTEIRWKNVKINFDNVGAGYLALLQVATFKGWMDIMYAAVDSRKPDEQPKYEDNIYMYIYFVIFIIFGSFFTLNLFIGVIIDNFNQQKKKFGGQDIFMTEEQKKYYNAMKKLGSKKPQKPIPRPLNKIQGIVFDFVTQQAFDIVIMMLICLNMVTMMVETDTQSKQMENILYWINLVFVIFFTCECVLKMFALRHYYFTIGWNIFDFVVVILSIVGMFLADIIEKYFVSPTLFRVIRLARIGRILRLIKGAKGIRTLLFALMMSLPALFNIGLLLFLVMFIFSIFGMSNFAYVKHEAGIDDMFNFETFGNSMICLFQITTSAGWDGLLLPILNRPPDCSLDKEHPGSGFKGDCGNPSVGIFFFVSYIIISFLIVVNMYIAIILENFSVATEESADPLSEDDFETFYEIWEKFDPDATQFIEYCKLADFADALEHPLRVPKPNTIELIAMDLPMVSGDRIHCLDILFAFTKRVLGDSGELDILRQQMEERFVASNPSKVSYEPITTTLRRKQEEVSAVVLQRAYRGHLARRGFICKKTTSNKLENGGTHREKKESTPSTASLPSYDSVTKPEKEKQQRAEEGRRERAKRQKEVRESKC

## NC1=N[C@H](O)[C@H]2[C@H]3O[C@]4(O)O[C@@H]([C@@H](O)[C@@]2(N1)[C@@H]4O)[C@]3(O)CO [TTX, tetrodotoxin]
[1]
  block of AaH-II*-modified hNav1.6 currents: complete block of hNav1.6 currents
[2]
  block of AaH-II*-triggered INaL: entirely blocked; also recorded: fully blocked
[3]
  block of AaH-II* responses: blocked
[4]
  calcium transient amplitude and time to peak: reduce the amplitude and increase the time to peak of regular calcium transients moderately
  cells presenting SCR events (SCR cells / cells): does not by itself trigger the appearance of SCR events
[5]
  interbeat interval (bradycardia): small bradycardic effect
  ventricular conduction velocity / activation time: unaffected; also recorded: does not affect ventricular conduction velocity
[6]
  P wave: 16.3 ± 1.4 ms
  PR: 48.5 ± 3.3 ms
  QRS: 18.2 ± 0.7 ms
  QTc: 45.9 ± 2.2
  RR: 194.7 ± 9.3 ms
  RR interval: increases the RR interval progressively with increasing doses
  T wave area: 1.1 ± 0.1 mV/ms
  arrhythmic rats (rats / all rats): clearly non-arrhythmic
[7]
  circulating plasmatic concentration: 403 ± 44 nM

— publication PMC13598332, “Selective activation of tetrodotoxin-sensitive sodium channels by AaH-II drives arrhythmogenic late Na^+ current in the heart” (Europace, 2026)
